Source: patent US9833465B2 (priority 2013, dated 2017)
Where two headings read alike, the source gives them in different places.

Legend:
Assay type in all cases: cell-based, human
[1] = tested on: representative colon, lung and breast cancer cell lines; assay: Anticancer activity against colon, lung and breast cancer cell lines (summary over the panel); conditions: for anticancer activity (in words): colon, lung (MDR) and breast cancer cell lines
Experimental: Arimetamycins A-C (1-3) were evaluated for anticancer activity against representative colon, lung and breast cancer cell lines as described below. The lung cancer line (H69AR) is multidrug resistant (MDR), showing high-level resistance to anthracyclines (50-fold) as well as many other anticancer agents including vincristine, etoposide and mitoxantrone. […] P-glycoprotein expression-dependent MDR is the most clinically significant resistance mechanism affecting the utility of anthracyclines. Compounds of the genus described herein are the first anthracyclines from Streptomyces culture that appear effective against MDR cancers.
(§1) Antiproliferative assay: The cytotoxicities of arimetamycins A (1), B (2) and C (3) were evaluated using four human cancer cell lines: HCT-116 colon carcinoma (ATCC; CCL-247) [M. G. Brattain, W. D. Fine, F. M. Khaled, J. Thompson, D. E. Brattain, Cancer Res 1981, 41, 1751-1756], WiDr colorectal adenocarcinoma (ATCC; CCL-218) [P. Noguchi, R. Wallace, J. Johnson, E. M. Earley, S. O'Brien, S. Ferrone, M. A. Pellegrino, J. Milstien, C. Needy, W. Browne, J. Petricciani, In vitro 1979, 15, 401-408], MDR-MB-231 breast adenocarcinoma (ATCC; HTB-26) [B. R. Brinkley, P. T. Beall, L. J. Wible, M. L. Mace, D. S. Turner, R. M. Cailleau, Cancer Res 1980, 40, 3118-3129] and H69AR multidrug resistant lung carcinoma (ATCC; CRL-11351) [S. E. Mirski, J. H. Gerlach, S. P. Cole, Cancer Res 1987, 47, 2594-2598] cell lines. HCT-116 and H69AR cells were grown in McCoy's 5A Modified Medium (Gibco) supplemented with 10% (v/v) FBS and RPMI-1640 (ATCC) supplemented with 20% (v/v) FBS, respectively. WiDr and MDA-MB-231 cells were grown in DMEM Medium (Gibco) supplemented with 10% (v/v) FBS. All the cell lines were incubated at 37° C. with 5% CO2. Cells in log phase growth were harvested by trypsinization. Cells were seeded into 96-well plates (HCT-116: 1,000 cells/well, WiDr: 3,000 cells/well, MDA-MB-231: 8,000 cells/well, H69AR: 25,000 cells/well) and incubated overnight at 37° C. with 5% CO2. Compounds 1-3 (in DMSO) were sequentially diluted (3-fold starting at 50 μg/mL) across a 96-well plate and 100 μL was transferred to the appropriate wells in the assay plates. Doxorubicin (Sigma-Aldrich) and daunorubicin (Sigma-Aldrich) were used as positive controls and DMSO was used as a negative control. The plates were incubated at 37° C. for 3-6 days depending on the growth rate and then evaluated for viability using either an MTT (3-(4,5-Dimethylthiazol-2-yl)-2,5-diphenyltetrazolium bromide) (MDR-MB-231 and H69AR) or crystal violet (HCT-116 and WiDr) based colorimetric assay [R. Supino, Methods in molecular biology 1995, 43, 137-149; bD. Zivadinovic, B. Gametchu, C. S. Watson, Breast Cancer Res 2005, 7, R101-112]. Cell viability is recorded based on the percent stain present in each well relative to no drug DMSO control wells. Assays were run in triplicate.

[2] = tested on: H69AR multidrug resistant lung carcinoma; assay: cells; conditions: multidrug resistant lung cancer cells, 3-6 days, MTT, triplicate, read-out: IC50 H69AR Lung/MDR
Experimental: as §1

[3] = tested on: MDA-MB-231 breast adenocarcinoma; assay: cells; conditions: breast cancer cells, 3-6 days, MTT, triplicate, read-out: IC50 MDSMB231 Breast
Experimental: as §1

[4] = tested on: WiDr colorectal adenocarcinoma; assay: cells; conditions: WiDr colon cancer cells, 3-6 days, crystal violet, triplicate
Experimental: as §1

HCT-116 colon carcinoma = assay: cells; conditions: HCT116 colon cancer cells, 3-6 days, crystal violet, triplicate
Experimental: Compounds were tested in HTC 116 cell line, which is an art-recognized isogenic human disease model predictive of activity in human patients. They were tested according to the following standard protocol:
as §1

COc1cc(O)c2c(c1)C(=O)c1cc3c(c(O)c1C2=O)[C@@H](O[C@H]1C[C@](C)(N(C)C)[C@H](O[C@H]2C[C@](C)(O)[C@H](N(C)C)[C@H](C)O2)[C@H](C)O1)[C@H](OC)[C@](C)(O)C3=O [Arimetamycin A(1), arimetamycin A]
IC50 against all cell lines (in words) ([1]; all cell lines including the H69AR MDR cell line): nanomolar | anticancer activity (in words) [1]: highly active against both MDR and drug sensitive cell lines | IC50 fold lower than doxorubicin or daunorubicin ([1]; compared with either doxorubicin or daunorubicin): 2-10 fold | IC50 [2]: 67 nM | IC50 [3]: 164 nM | IC50 [4]: 0.5 nM | IC50 (HCT-116 colon carcinoma): 2.5 nM

COc1cc(O)c2c(c1)C(=O)c1cc3c(c(O)c1C2=O)[C@@H](O[C@H]1C[C@H](O)[C@@H](O)[C@H](C)O1)[C@H](OC)[C@](C)(O)C3=O [Arimetamycin B(2), arimetamycin B]
anticancer activity (in words) [1]: moderate activity | IC50 [2]: 47100 nM | IC50 [3]: 29600 nM | IC50 [4]: 7500 nM | IC50 (HCT-116 colon carcinoma): 1800 nM

COc1cc(O)c2c(c1)C(=O)c1cc3c(c(O)c1C2=O)[C@@H](O[C@H]1C[C@H](OC)[C@@H](O)[C@H](C)O1)[C@H](OC)[C@](C)(O)C3=O [Arimetamycin C(3), arimetamycin C]
anticancer activity (in words) [1]: moderate activity | IC50 [2]: 18800 nM | IC50 [3]: 27700 nM | IC50 [4]: 5200 nM | IC50 (HCT-116 colon carcinoma): 1400 nM

COc1cccc2c1C(=O)c1c(O)c3c(c(O)c1C2=O)C[C@@](O)(C(C)=O)C[C@@H]3O[C@H]1C[C@H](N)[C@H](O)[C@H](C)O1 [Daunorubicin, daunorubicin, reference compound]
IC50 [2]: 4800 nM | IC50 [3]: 330 nM | IC50 [4]: 5.5 nM | IC50 (HCT-116 colon carcinoma): 6.8 nM

COc1cccc2c1C(=O)c1c(O)c3c(c(O)c1C2=O)C[C@@](O)(C(=O)CO)C[C@@H]3O[C@H]1C[C@H](N)[C@H](O)[C@H](C)O1 [Doxorubicin, doxorubicin, reference compound]
IC50 ([2]; Homo sapiens, H69AR): 18400 nM | IC50 ([3]; Homo sapiens, MDA-MB-231): 970 nM | IC50 ([4]; Homo sapiens): 30.9 nM | IC50 (HCT-116 colon carcinoma; Homo sapiens, HCT-116): 22.5 nM
